Experiment [1] concerns the target T1, p62 (Homo sapiens, UniProt Q13501).
T1 construct: gene SQSTM1; p62-mCherry plasmid expressed in HEK293T, RIPA lysate (MST); endogenous p62 in human osteosarcoma cells (CETSA); p62 mutants transfected into 143B cells (DARTS)
The experiment in a line: cellular thermal shift assay (CETSA), western blot. Type of experiment: cell-based. The following applies: endogenous p62 in osteosarcoma cells, SFN 20 μM, 2 h, 46-60 °C gradient.

Experiment [2] addresses T1, p62. The experiment in a line: microscale thermophoresis (Monolith NT.[…]). Type of experiment: binding. A general note: Microscale thermophoresis detects binding through changes in fluorescence in a small temperature gradient.

As usually defined, the Kd is the equilibrium constant for the complex coming apart. High values mean a looser complex, low ones a tighter complex.

T1 sequence (Q13501 2-440): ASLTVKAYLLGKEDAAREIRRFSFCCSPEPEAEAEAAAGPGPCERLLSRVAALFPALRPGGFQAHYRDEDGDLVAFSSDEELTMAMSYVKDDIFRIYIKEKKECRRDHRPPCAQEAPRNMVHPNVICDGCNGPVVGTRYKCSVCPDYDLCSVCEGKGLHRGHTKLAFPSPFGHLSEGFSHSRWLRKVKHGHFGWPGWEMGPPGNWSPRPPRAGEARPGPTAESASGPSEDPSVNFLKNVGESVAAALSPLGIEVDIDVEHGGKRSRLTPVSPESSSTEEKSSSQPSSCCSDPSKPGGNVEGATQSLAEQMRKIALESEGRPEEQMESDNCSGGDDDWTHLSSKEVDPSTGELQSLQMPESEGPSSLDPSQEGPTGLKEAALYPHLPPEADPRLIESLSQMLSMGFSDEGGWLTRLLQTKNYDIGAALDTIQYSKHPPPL

Take `C[S@@+]([O-])CCCCN=C=S` [Sulforaphane]: the “thermal stability (CETSA)” value at p62 [1] is given as “SFN significantly enhanced the thermal stability of p62 in OS cells (Fig. 6C)”. At p62 [2], the Kd turned out to be 15.5 ± 3.93 µM.

(Values after publication PMC11681892, “Targeting p62 by sulforaphane promotes autolysosomal degradation of SLC7A11, inducing ferroptosis for osteosarcoma treatment” (Redox Biology, 2024).)
